The supplement of paper PMC8671470

Columns and labels:
Settings in all cases: 72 h
HL-60 [1] = assay: area under dose-response curve (viability, 1 nM-10 uM) (fraction (0-1)); higher = more sensitive
Method in brief: (§1)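 Area under the curve, where listed, was derived from four-parameter log-logistic fits with drc and PharmacoGx. These fits used CellTiter-Glo viability from HL-60 cells in RPMI 1640 with 10% FBS, normalised to DMSO wells and wells holding 10 μM proteasome inhibitor. The full library was rescreened on 384-well plates in duplicate at five tenfold concentrations, 1–10,000 nM, with DMSO or 100 nM of one of three metabolic inhibitors, for 72 h at 37 °C, 5% CO2.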

HL-60 [2] = assay: cell viability (% survival relative to DMSO control); higher = less cytotoxic
Method in brief: as §1

[3] = test system: myeloid leukemia patient primary cells Pat.12; assay: cell viability (% survival relative to DMSO control); higher = less cytotoxic
Method in brief: (§2)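 Mononuclear cells from patients with AML or CML were thawed, purified on Ficoll and placed in RPMI 1640 with 10% FBS at 10,000 cells/well on 384-well plates. The plates came pre-printed with 70 compounds at five tenfold concentrations spanning 1–10,000 nM, in duplicate, and cells were exposed for 72 h. CellTiter-Glo gave viability, scaled between DMSO wells and wells with 10 μM proteasome inhibitor. Where reported, area under the curve was obtained from log-logistic fits with four parameters using the drc and PharmacoGx R packages.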

[4] = test system: myeloid leukemia patient primary cells Pat.14; assay: as above
Method in brief: as §2

[5] = test system: myeloid leukemia patient primary cells Pat.10; assay: as above
Method in brief: as §2

[6] = test system: myeloid leukemia patient primary cells Pat.15; assay: as above
Method in brief: as §2

[7] = test system: myeloid leukemia patient primary cells Pat.9; assay: as above
Method in brief: as §2

[8] = test system: myeloid leukemia patient primary cells Pat.1; assay: as above
Method in brief: as §2

[9] = test system: myeloid leukemia patient primary cells Pat.3; assay: as above
Method in brief: as §2

[10] = test system: myeloid leukemia patient primary cells Pat.6; assay: as above
Method in brief: as §2

[11] = test system: myeloid leukemia patient primary cells Pat.13; assay: as above
Method in brief: as §2

[12] = test system: myeloid leukemia patient primary cells Pat.11; assay: as above
Method in brief: as §2

[13] = test system: myeloid leukemia patient primary cells Pat.4; assay: as above
Method in brief: as §2

[14] = test system: myeloid leukemia patient primary cells Pat.2; assay: as above
Method in brief: as §2

[15] = test system: myeloid leukemia patient primary cells Pat.7; assay: as above
Method in brief: as §2

[16] = test system: myeloid leukemia patient primary cells Pat.5; assay: as above
Method in brief: as §2

[17] = test system: myeloid leukemia patient primary cells Pat.8; assay: as above
Method in brief: as §2

[18] = test system: myeloid leukemia patient primary cells Pat.12; assay: area under dose-response curve (viability, 1 nM-10 uM) (fraction (0-1)); higher = more sensitive
Description: (§3)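 AUC (0–1, higher = more sensitive) of the 5-point dose–response (1 nM–10 µM, 72 h, CellTiter-Glo) in primary AML/CML patient mononuclear cells. 0.030103 is the floor for inactive compounds.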

[19] = test system: myeloid leukemia patient primary cells Pat.14; assay: as above
Description: as §3

[20] = test system: myeloid leukemia patient primary cells Pat.10; assay: as above
Description: as §3

[21] = test system: myeloid leukemia patient primary cells Pat.15; assay: as above
Description: as §3

[22] = test system: myeloid leukemia patient primary cells Pat.9; assay: as above
Description: as §3

[23] = test system: myeloid leukemia patient primary cells Pat.1; assay: as above
Description: as §3

[24] = test system: myeloid leukemia patient primary cells Pat.3; assay: as above
Description: as §3

[25] = test system: myeloid leukemia patient primary cells Pat.6; assay: as above
Description: as §3

[26] = test system: myeloid leukemia patient primary cells Pat.13; assay: as above
Description: as §3

[27] = test system: myeloid leukemia patient primary cells Pat.11; assay: as above
Description: as §3

[28] = test system: myeloid leukemia patient primary cells Pat.4; assay: as above
Description: as §3

[29] = test system: myeloid leukemia patient primary cells Pat.2; assay: as above
Description: as §3

[30] = test system: myeloid leukemia patient primary cells Pat.7; assay: as above
Description: as §3

[31] = test system: myeloid leukemia patient primary cells Pat.5; assay: as above
Description: as §3

[32] = test system: myeloid leukemia patient primary cells Pat.8; assay: as above
Description: as §3

Cn1cc(-c2ccncc2)c(-c2ccc(OCc3ccc4ccccc4n3)cc2)n1
HL-60 [1]
Settings | area under dose-response curve
co-treatment: AZD3965 100 nM | < 0.0301
co-treatment: DMSO vehicle | < 0.0301
co-treatment: GSK2194069 100 nM | 0.05
co-treatment: pictilisib 100 nM | 0.05

cell viability [%], HL-60 [2]
Settings | 0.001 µM | 0.01 µM | 0.1 µM | 1 µM | 10 µM
co-treatment: AZD3965 100 nM | 94.1 | 101 | 101 | 96.7 | 103
co-treatment: DMSO vehicle | 99.1 | 94.8 | 102 | 98.248 | 101
co-treatment: GSK2194069 100 nM | 103 | 101 | 107 | 90.9 | 81.8
co-treatment: pictilisib 100 nM | 98.7 | 101 | 114 | 94.4 | 107

O=C(O)C(=S)Cc1c[nH]c2ccc(F)cc12
HL-60 [1]
Settings | area under dose-response curve
co-treatment: AZD3965 100 nM | < 0.0301
co-treatment: DMSO vehicle | < 0.0301
co-treatment: GSK2194069 100 nM | < 0.0301
co-treatment: pictilisib 100 nM | < 0.0301

cell viability [%], HL-60 [2]
Settings | 0.001 µM | 0.01 µM | 0.1 µM | 1 µM | 10 µM
co-treatment: AZD3965 100 nM | 94 | 98.2 | 106 | 103 | 101.9
co-treatment: DMSO vehicle | 99.1 | 101 | 106 | 102 | 104
co-treatment: GSK2194069 100 nM | 90.8 | 101 | 103 | 104 | 104
co-treatment: pictilisib 100 nM | 91.7 | 99.9 | 101.8 | 101 | 97.2

CN(C)C(=O)n1nnnc1Cc1ccc(-c2ccccc2)cc1
cell viability [%]
Settings | 1 nM | 10 nM | 100 nM | 1000 nM | 10000 nM
[3] | 94.7 | 91.7 | 90.7 | 93 | 41.2
[4] | 97.8 | 63.7 | 95.5 | 32 | 0.671
[5] | 96.5 | 75.2 | > 100 | 20.7 | 15.5
[6] | 94.8 | 96 | 96.2 | 89.5 | 29.8
[7] | 64 | 5.6 | 60.2 | 9.03 | 0.492
[8] | 98.5 | 74.4 | 89.4 | 87.9 | 4.27
[9] | > 100 | 64.8 | 82.7 | 30.3 | 2.63
[10] | > 100 | 70.8 | 97.7 | > 100 | 21.8
[11] | 84.1 | 60.2 | 92.1 | 87.3 | 7.43
[12] | > 100 | 87.4 | 91.7 | 93.6 | 22
[13] | 97.2 | 81 | 84.8 | > 100 | 2.63
[14] | 97.7 | 78.6 | > 100 | 99.1 | 37.3
[15] | > 100 | 38.7 | 73.7 | 24.8 | 13.2
[16] | 60.8 | 1.18 | 63 | 1.33 | 2.24
[17] | 99.4 | 97.5 | 71.9 | 85.5 | 4.49

Settings | area under dose-response curve
[18] | 0.044
[19] | 0.277
[20] | 0.298
[21] | 0.0943
[22] | 0.766
[23] | 0.124
[24] | 0.278
[25] | 0.0748
[26] | 0.105
[27] | 0.0778
[28] | 0.115
[29] | 0.0497
[30] | 0.331
[31] | 0.798
[32] | 0.132
